# Laboratory results: publication PMC8252719, “Macrocyclic FKBP51 Ligands Define a Transient Binding Mode with Enhanced Selectivity” (Angewandte Chemie (International Ed. in English), 2021)
# Like-named read-outs stand apart in the source and are kept apart here.
# How the values were obtained:
# FKBP12 = FKBP12 (Homo sapiens, UniProt P62942); experiment: competitive fluorescence polarization assay, FKBP12; format: binding; conditions: for binding to FKBP12 (in words): fluorescence polarization assay
# Sequence of FKBP12 (P62942 whole entry): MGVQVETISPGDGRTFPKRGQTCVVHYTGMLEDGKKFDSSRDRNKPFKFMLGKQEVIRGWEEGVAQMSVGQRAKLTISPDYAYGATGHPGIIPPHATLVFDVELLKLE
# [1] = system: IKKα phosphorylation in SIM-A9 cells; experiment: IKKα inhibition in SIM-A9 cells (Western blot); format: cell-based, murine
# Description: We next explored if the macrocyclic ligands could interfere with the cellular functions of FKBP51. We therefore treated SIM‐A9 cells, which were recently discovered as a SAFit‐sensitive cellular model for stress‐mediated secretory autophagy. ^[24] […] (Figure 2 F and S6C). […]
# (§1) 5.2 IKKα inhibition in SIM-A9 cells
# (§2) Cell culture and treatments
# (§3) Murine microglia SIM-A9 cells were cultured at 37 °C, 5% CO2 in Dulbecco's Modified Eagle Medium (DMEM) high glucose with GlutaMAX (Thermo Fisher Scientific, 10566016), supplemented with 1 mM sodium pyruvate (Thermo Fisher Scientific, 11360-070), 10% fetal bovine serum (PAN Biotech, P30-8500), and 1% antibiotic-antimycotic (Thermo Fisher Scientific, 15240-062).
# (§4) For the preparation of whole-cell lysates, confluent SIM-A9 cell cultures treated with the indicated compounds for 16 h in the above mentioned growth medium, were washed two times with ice-cold DPBS (Thermo Fisher Scientific, 14190-144) and lysed in an appropriate volume of RIPA buffer (Thermo Fisher Scientific, 89901), freshly supplemented with 1x cOmplete™ EDTA-free protease inhibitor cocktail (Roche, 4693132001) and 1x PhosSTOP™ phosphatase inhibitor cocktail (Roche, 4906837001) for 20 min on ice.
# (§5) Subsequently, samples were centrifuged for 10 min at 4°C at 13000 rpm. The resulting supernatants were transferred to new 1.5 ml reaction tubes and prepared for separation with an SDS-PAGE system and analyzed by immunoblotting.
# (§6) SDS-PAGE and immunoblotting
# Separation of proteins was performed with the Criterion™ Vertical Electrophoresis Cell System (Bio-Rad, 1656001) on 4–20% Criterion™ TGX™ Precast Midi Protein Gels (Bio-Rad, 5671095). Immunoblotting was performed with the Trans-Blot Turbo Transfer System (Bio-Rad, 1704150) on 0.2 µm PVDF Trans-Blot Turbo Transfer Membranes (Bio-Rad, 1704157). For immunodetection, membranes were placed in TBS, supplemented with 0.05% Tween (Sigma-Aldrich, P9416) and 5% non-fat milk (Carl Roth, T145.1) for 1 h at RT and then incubated with the primary antibody diluted in TBS-T overnight at 4°C. Following primary antibodies were used:
# Phospho-IKKα S176/phospho-IKKβ S177 (1:1000, Cell Signaling Technology, 2078), IKKα (1:1000, Cell Signaling Technology, 1682) and GAPDH (1:1000, Cell Signaling Techology, 5174).
# Then, immunoblots were washed and probed with horseradish peroxidase- conjugated secondary antibody (1:10000, Cell Signaling Technology, 7074) for 1 h at RT. Immunoreactive protein bands were visualized using Clarity Western ECL Substrate (Bio-Rad, 1705061) or Clarity Max Western ECL Substrate (Bio-Rad, 1705062). Determination of the band intensities was performed with […]
# FKBP12.6 = FKBP12.6 (Homo sapiens, UniProt P68106); experiment: competitive fluorescence polarization assay, FKBP12.6; format: binding; conditions: for binding to FKBP12.6 (in words): fluorescence polarization assay
# Sequence of FKBP12.6 (P68106 whole entry): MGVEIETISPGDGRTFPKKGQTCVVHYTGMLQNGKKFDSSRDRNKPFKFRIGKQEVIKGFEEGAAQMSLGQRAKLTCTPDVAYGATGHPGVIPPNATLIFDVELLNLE
# FKBP51FK1 [2] = target: T1, FKBP51FK1 (Homo sapiens, UniProt Q13451); experiment: competitive fluorescence polarization assay, FKBP51FK1; format: binding
# T1 sequence (Q13451 42-130 limits assumed): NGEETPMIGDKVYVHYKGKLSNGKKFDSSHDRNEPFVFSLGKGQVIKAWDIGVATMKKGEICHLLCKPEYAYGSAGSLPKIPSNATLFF
# Description: Table S1. Ki values were determined by a competitive fluoresc ence polarization assay.
# 4.1 Binding curves of 13a, c and d […]
# [3] = system: phorbol/ionomycin-induced IL8 secretion in Jurkat cells; experiment: immunostimulation/suppression assay in Jurkat cells (IL8 secretion); format: cell-based, human; conditions: IL8 ELISA; for effect on phorbol/ionomycin-induced IL8 secretion (compound on its own): 50 ng/ml PMA and 750 ng/ml Ionomycin, six hours
# Description: Importantly, unlike the pan‐selective FKBP ligand [4.3.1]16h ^[21]
# 5.1 Immunostimulation/suppression assays in JURKAT cells
# Figure S6A. Cellular analysis of compound FK[431]-16h in Jurkat cells
# 150 000 Jurkat cells were seeded in a 96 well plate in 180 µl and treated for 30 minutes with 13d or FK[431]-16h at the indicated […]
# Cells were pelleted and supernatant collected and stored at -80°C. The IL8 content in the s upernatant was determined using the human IL8/CXCL8 DuoSet Elisa kit (RndSystems) according to manufacturers instructions . The sample volume of supernatant was adapted to 150 µl. Optical density wa s assessed using a Tecan Spark.
# as §1, §2, §3, §4, §5, §6
# Separation of proteins was performed with the Criterion™ Vertical Electrophoresis Cell System (Bio-Rad, 1656001) on 4–20% Criterion™ TGX™ Precast Midi Protein Gels (Bio-Rad, 5671095). […]
# FKBP51FK1 [4] = target: T1, FKBP51FK1; experiment: isothermal titration calorimetry (ITC); format: binding
# Description: 1. ITC of compounds 13a and 13d
# Figure S1. A) Binding of compound 13a to FKBP51FK1 determined by isothermal titration calorimetry at 25 °C. A 20 µM solution FKBP51FK1 formulated in 20 mM
# HEPES pH 8.0, 20 mM NaCl, 5% glycerol and 2% DMSO was placed in the sample cell of a PEAK-ITC instrument. The syringe was filled with a 200 µM solution of
# 13a formulated in the same buffer. After equilibration the compound was titrated into the sample cell by 12 injection s of 3 µl each. The obtained data was analyzed
# Binding of compound 13d to FKBP51FK1 determined by isothermal titration calorimetry at 25 °C. A 13 µM solution FKBP51FK1 formulated in 20 mM HEPES pH
# 8.0, 20 mM NaCl, 5% glycerol and 2% DMSO was placed in the sample cell of a PEAK -ITC instrument. The syringe was filled with a 10 0 µM solution of 13d
# formulated in the same buffer. After equilibration the compound was titrated into the sample cell by 12 injections of 3 µl each. The obtained data was analyzed using […]
# FKBP51FK1 [5] = target: T1, FKBP51FK1; conditions: values derived from literature; read-out: FKBP51FK1 K i; cited from earlier work
# Source text: Table 1 Affinities of the macrocycles with amino acid containing linker determined by a competitive fluorescence polarization assay. | column: FKBP51FK1 / K i [μM]^[a]
# FKBP52FK1 = target: T2, FKBP52FK1 (Homo sapiens, UniProt Q02790); experiment: competitive fluorescence polarization assay, FKBP52FK1; format: binding; conditions: Table 1 compounds tested up to 80 μM
# T2 sequence (Q02790 50-138 limits assumed): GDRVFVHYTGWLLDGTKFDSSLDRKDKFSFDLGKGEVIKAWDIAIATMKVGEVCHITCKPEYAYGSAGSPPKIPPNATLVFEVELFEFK
# [6] = meta B ring substituent R6, read-out: FKBP51 Ki (Table S1)
"Ki (FKBP12; competitive fluorescence polarization assay, >80 μM = highest measurable concentration before compound precipitation, ± = standard error from three independent measurements, read-out: FKBP12 K i) [nM]","Ki (FKBP12.6; competitive fluorescence polarization assay, >80 μM = highest measurable concentration before compound precipitation, ± = standard error from three independent measurements, read-out: FKBP12.6 K i) [nM]",Ki (FKBP51FK1 [2]; [6]) [nM],"Ki (FKBP51FK1 [2]; ± = standard error from three independent measurements [b] or error from two independent measurements [d], SEM, read-out: FKBP51FK1 K i) [nM]","Kd (FKBP51FK1 [4]; 25 °C, 20 mM HEPES pH 8.0, 20 mM NaCl, 5% glycerol, 2% DMSO, one-site binding model, mean ± SD from 3 independent experiments, SD, read-out: Kd-value for FKBP51FK1 by ITC) [nM]","Kd (FKBP51FK1 [4]; isothermal calorimetry, enthalpy-driven, read-out: K d for FKBP51 by ITC) [nM]",binding to FKBP12 (in words) (FKBP12),binding to FKBP12.6 (in words) (FKBP12.6),binding to FKBP52FK1 (in words) (FKBP52FK1),Structure (SMILES),"concentration at which apparent maximal inhibition of IKKα phosphorylation was already reached ([1]; SIM-A9 cells, lowest tested concentration) [µM]","inhibition of IKKα phosphorylation (in words) ([1]; murine microglia SIM-A9 cells, 16 h treatment, Western blot, three (macrocycles) or six (SAFit) independent cellular assays)",effect on phorbol/ionomycin-induced IL8 secretion (compound on its own) [3],"effect on the immunosuppressive activity of FK506 ([3]; 30 minutes pretreatment, then 0.2 nM FK506, PMA/Ionomycin)",Ki (FKBP51FK1 [5]) [nM]
> 80000,> 80000,290,400 ± 50,600 ± 100,600,–,–,–,COc1ccc(CC[C@H]2OC(=O)[C@@H]3CCCCN3C(=O)[C@@H](C3CCCCC3)NC(=O)C3(CC3)NC(=O)COc3cccc2c3)cc1OC [13 d],≤ 1,inhibited,neither immunostimulatory nor immunosuppressive,did not block,–
–,–,–,–,–,–,–,–,–,"C=CC[C@@H]1/C=C(\C)C[C@H](C)C[C@H](OC)[C@H]2O[C@@](O)(C(=O)C(=O)N3CCCC[C@H]3C(=O)O[C@H](/C(C)=C/[C@@H]3CC[C@@H](O)[C@H](OC)C3)[C@H](C)[C@@H](O)CC1=O)[C@H](C)C[C@@H]2OC [FK506, reference compound]",–,–,blocks,–,104
–,–,390,–,–,–,no binding,no binding,no binding,COc1cc2cc(c1)[C@@H](CCc1ccc(OC)c(OC)c1)OC(=O)[C@@H]1CCCCN1C(=O)[C@@H](C1CCCCC1)NC(=O)C(C)(C)NC(=O)CO2 [compound 26],–,–,–,–,–
–,–,370,–,–,–,no binding,no binding,no binding,COc1ccc(CC[C@H]2OC(=O)[C@@H]3CCCCN3C(=O)[C@@H](C3CCCCC3)NC(=O)C(C)(C)NC(=O)COc3cc(O)cc2c3)cc1OC [compound 25],–,–,–,–,–
